Experimental data reported in patent EP1070068B2, “GRANULATIMIDE DERIVATIVES FOR USE IN CANCER TREATMENT” (THE UNIVERSITY OF BRITISH COLUMBIA, priority 1998, dated 1999).
Read-outs that look alike come from different tables or passages of the source.

Assays:
MCF-7 mp53 cells [1] = assay: G2 checkpoint inhibition assay (TG-3 ELISA of mitotic cells after γ-irradiation, with nocodazole); assay type: cell-based; settings: for IC50: Homo sapiens
Description: G2 Checkpoint Inhibitor Assay: The G2 checkpoint inhibitor assay described herein involves treating cells, e. g. cells associated with a hyperproliferative disorder, including cancer cells, with a DNA damaging agent under conditions whereby arrest of the cells at G2 will be induced. A sample to be tested for G2 checkpoint inhibition activity and an agent which arrests cells in mitosis are applied to the cells, following which it is determined whether the G2 checkpoint is overcome and the cells enter mitosis. Release of the cells from arrest at G2 or prevention of arrest at G2, such that the cells proceed to mitosis, is the indicator of G2 checkpoint inhibition activity.
MCF-7 mp53 cells (mutant for p53) were cultured as monolayers in DMEM supplemented with 10% fetal bovine serum, 2 mM L-glutamine, 50 units/ml penicillin, 50 µg/ml streptomycin, 1 mM sodium pyruvate, MEM non-essential amino acids, 1 µg/ml bovine insulin, 1 µg/ml hydrocortisone, 1 ng/ml human epidermal growth factor, and 1 ng/ml β-estradiol at 37°C in humidified 5% CO2. The cells were seeded at 10,000 cells per well of 96-well polystyrene tissue culture plates (Falcon) in 100 µl medium. The cells were allowed to grow for 24 hours and then were irradiated with 6.5 Gy using a ^60Co source (Gammacell 200™, Atomic Energy Commission of Canada) delivering γ-rays at a dose rate of 1.4 Gy/min.
Extracts from marine organisms at about 10µg/ml (from 1000-fold stocks in DMSO) and 100 ng/ml nocodazole (Sigma, from a 1000-fold stock in DMSO) were added 16 hours after irradiation and the cells were incubated for a further 8 hours.
After drug treatment, the cell culture medium was removed and the cells were lysed by adding 100 µl of ice-cold lysis buffer (1 mM EGTA pH 7.4, 0.2 mM PMSF) and pipeting up-and-down 10 times. The cell lysates were transferred to 96-well PolySorp™ plates (Nunc) and dried completely by blowing warm air at about 37°C with a hair dryer positioned about 3 feet above plates. […] This was removed and replaced with 100 µl antibody buffer containing 0.1-0.15 µg/ml TG-3 monoclonal antibody and horseradish peroxidase-labelled goat anti-mouse IgM (Southern Biotechnology Associates) at a dilution of 1/500.
After overnight incubation at 4°C, the antibody solution was removed and the wells were rinsed 3 times with 200 µl 10 mM Tris HCl pH 7.4, 0.02% Tween 20™.

CDK1 = CDK1 (Homo sapiens, UniProt P06493); assay: Protein kinase inhibition assay (γ-32P ATP); assay type: biochemical; settings: room temperature, 15 minutes
Description: (§1) 100% DMSO was used as a negative control.
(§2) Kinase reactions are performed at room temperature. The reaction mixture contains diluted test compound, the protein kinase, substrate and γ-^32P ATP. The mixture is incubated for 15 minutes, and the reaction mix spotted, and counted.

GSK3b = GSK3b (Homo sapiens, UniProt P49841); assay: Protein kinase inhibition assay (γ-32P ATP, peptide substrate); assay type: biochemical; settings: room temperature, 15 minutes
Description: (§3) The GSK3β peptide substrate used was […] (PO4H2)EDEE-amide. The ILK1 substrate is […]-amide.
as §1, §2

ILK1 = target: T1, ILK1 (Homo sapiens, UniProt Q13418); assay: as above; assay type: biochemical; settings: room temperature, 15 minutes
T1 sequence (Q13418 1-452): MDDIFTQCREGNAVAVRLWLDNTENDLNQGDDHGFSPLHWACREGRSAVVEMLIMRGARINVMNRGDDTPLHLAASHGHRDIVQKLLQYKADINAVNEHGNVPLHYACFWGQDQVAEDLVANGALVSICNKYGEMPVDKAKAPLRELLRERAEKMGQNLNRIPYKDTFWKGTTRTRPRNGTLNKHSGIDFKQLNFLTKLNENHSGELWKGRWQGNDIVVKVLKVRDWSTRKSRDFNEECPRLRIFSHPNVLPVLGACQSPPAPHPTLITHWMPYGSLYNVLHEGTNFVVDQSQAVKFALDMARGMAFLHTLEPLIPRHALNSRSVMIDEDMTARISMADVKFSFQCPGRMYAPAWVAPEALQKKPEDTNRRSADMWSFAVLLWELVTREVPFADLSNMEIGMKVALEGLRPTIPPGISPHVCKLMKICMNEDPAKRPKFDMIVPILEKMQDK
Description: as §3, §1, §2

[2] = Solubility in organic solvents; assay type: physicochemical
p53-MCF-7 cells = settings: cited from earlier work
[3] = system: p53- A549 human lung adenocarcinoma cells; settings: cited from earlier work
MCF-7 mp53 cells [4] = assay: G2 checkpoint inhibition assay (TG-3 ELISA of mitotic cells after γ-irradiation, with nocodazole); assay type: cell-based; settings: concentration of 0.1-30 µM
MCF-7 cells = assay: Cell survival, soluble tetrazolium salt assay with γ-irradiation, p53+ cells; assay type: cell-based; settings: MCF-7 cells (Figure 1C)
MCF-7 mp53 cells [5] = system: MCF-7 mp53 cells
in vitro = settings: human
[6] = MCF7, Table 2, read-out: IC50 G2 checkpoint
[7] = MCF7, light or radiation study, MCF-7 mp53 cells irradiated with 6.5 Gy, read-out: half-maximal G2 checkpoint inhibition (IC50)

Sequence of GSK3b (P49841 whole entry, species assumed): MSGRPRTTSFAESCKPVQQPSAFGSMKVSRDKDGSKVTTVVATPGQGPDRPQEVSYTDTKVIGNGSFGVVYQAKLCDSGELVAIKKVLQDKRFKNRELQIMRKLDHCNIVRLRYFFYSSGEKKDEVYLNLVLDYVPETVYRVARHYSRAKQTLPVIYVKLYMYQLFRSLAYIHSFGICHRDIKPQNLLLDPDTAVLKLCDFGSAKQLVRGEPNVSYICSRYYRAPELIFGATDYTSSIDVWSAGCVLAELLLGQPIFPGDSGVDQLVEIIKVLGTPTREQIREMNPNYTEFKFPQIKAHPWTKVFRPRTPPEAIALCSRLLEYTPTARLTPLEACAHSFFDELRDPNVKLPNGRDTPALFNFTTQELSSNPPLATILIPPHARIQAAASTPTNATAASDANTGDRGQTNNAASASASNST
Sequence of CDK1 (P06493 whole entry, species assumed): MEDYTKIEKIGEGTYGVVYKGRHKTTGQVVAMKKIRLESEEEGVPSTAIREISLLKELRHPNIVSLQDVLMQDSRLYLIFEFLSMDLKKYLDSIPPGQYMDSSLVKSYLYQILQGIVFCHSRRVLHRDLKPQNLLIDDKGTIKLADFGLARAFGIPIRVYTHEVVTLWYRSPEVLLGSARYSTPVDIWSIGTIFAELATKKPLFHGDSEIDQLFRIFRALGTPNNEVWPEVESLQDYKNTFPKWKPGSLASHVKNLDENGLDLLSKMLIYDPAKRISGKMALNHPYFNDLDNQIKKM
Sequence of CDK1 (P14635 whole entry partner, species assumed): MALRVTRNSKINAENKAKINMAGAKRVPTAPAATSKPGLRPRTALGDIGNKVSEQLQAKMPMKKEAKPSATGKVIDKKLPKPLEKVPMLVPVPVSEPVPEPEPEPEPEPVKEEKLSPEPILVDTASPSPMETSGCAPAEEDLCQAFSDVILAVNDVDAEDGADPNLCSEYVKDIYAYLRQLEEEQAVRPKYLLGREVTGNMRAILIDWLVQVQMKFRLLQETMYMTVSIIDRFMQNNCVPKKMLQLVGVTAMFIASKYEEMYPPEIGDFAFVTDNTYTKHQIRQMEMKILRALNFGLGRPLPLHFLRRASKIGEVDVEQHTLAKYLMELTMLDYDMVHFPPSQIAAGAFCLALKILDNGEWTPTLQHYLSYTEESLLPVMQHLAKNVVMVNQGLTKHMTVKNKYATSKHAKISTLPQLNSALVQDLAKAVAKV

Row | SMILES | IC50 (MCF-7 mp53 cells [1]; [6]) [µM] | IC50 (CDK1) [nM] | IC50 (GSK3b) [nM] | IC50 (ILK1) [µM] | IC50 (MCF-7 mp53 cells [1]; [7]) [µM] | other results
1 | O=C1NC(=O)c2c1c1[nH]cnc1c1[nH]c3ccccc3c21 [Granulatimide] | 1.3 | 2000 | 2000 | > 50 | – | IC50 (MCF-7 mp53 cells [1]; MCF7, Figure 2, read-out: G2 checkpoint inhibitor IC50): 1.3 µM; solubility ([2]; DMF or DMSO): soluble; solubility ([2]; most common organic solvents including ethanol and methanol): very insoluble
2 | Cn1c(=O)c2c(ncn2C)n(C)c1=O [caffeine, reference compound] | – | – | – | – | – | IC50 (MCF-7 mp53 cells [1]; MCF7, comparison compound, read-out: IC50 for G2 checkpoint inhibition): 1000 µM; absorbance readings at 405 nm (MCF-7 mp53 cells [1]; positive control, 2 mM): about 1.0
3 | O=C1NC(=O)c2c1c1c3ccccc3[nH]c1n1ccnc21 [compound 60] | 6 | 17000 | 5000 | > 50 | 2 | –
4 | CC(=O)CCCCn1c(=O)c2c(ncn2C)n(C)c1=O [Pentoxifylline] | – | – | – | – | – | enhancement of cisplatin induced killing (p53-MCF-7 cells): 30 fold; enhancement of radiation induced killing [3]: 5 fold
5 | O=C1NC(=O)c2c1c1c3ccccc3[nH]c1c1cncn21 [compound 50] | 1 | 500 | 100 | 15 | 1 | –
6 | O=C1NC(=O)C(c2c[nH]c3ccccc23)=C1c1cnc[nH]1 [Didemnimide A] | – | – | – | – | – | G2 checkpoint inhibition activity (MCF-7 mp53 cells [4]): no activity
7 | O=C1NC(=O)c2c1c1c3ccccc3[nH]c1n1cncc21 [Isogranulatimide] | 1.8 | – | 500 | > 50 | 1.8 ± 0.2 | synergy with irradiation in killing p53+ cells (MCF-7 cells): does not kill p53+ cells synergistically; reduction of the IC50 for cytotoxicity when cells were irradiated (MCF-7 mp53 cells [5]): 5 fold; synergy with γ-irradiation in killing p53- cells (MCF-7 mp53 cells [5]; 2, 4 or 6 Gy, 16 hours for isogranulatimide): acted synergistically; IC50 at 16 h (in vitro): 40 ± 4 µM
8 | O=C1NC(=O)c2c1c1c3ccccc3[nH]c1c1nccn21 [compound 40] | > 100 | > 50000 | 25000 | > 50 | > 100 | –
